ChEMBL document CHEMBL1201862, “PubChem BioAssay data set” (2004)
Each block holds one compound with its values, some of them ahead of it. Calls of active or inactive are those of the source.

How the values were obtained:
[1] = NIH3T3 cell viability loss – ATP luminescence, mouse fibroblasts, counter-screen, dose response (AID 2010); type: functional, cell-based;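 note: cells exposed to compound for about 90 hours before reading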
[2] = Trypanosoma cruzi growth suppression in host cells – NIH3T3 host cells, beta-gal luminescence, confirmation (AID 2044); type: functional, cell-based;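 note: intracellular parasites grown in NIH/3T3 mouse fibroblasts as host cells; luminescent beta-galactosidase reporter signal from transgenic T. cruzi replicating inside host cells; inhibitors lower the luminescence signal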
[3] = target: T1, Microphthalmia-associated transcription factor (Homo sapiens, UniProt O75030); assay: reducers of TRPM1 reporter luminescence, concentration series – cell-based, SK-MEL-5, cherry-picked, set 3, MITF inhibitor project, dose response (AID 493073); type: functional;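 note: SK-MEL-5 melanoma cells with luciferase driven by the MITF target TRPM1 promoter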
T1 sequence (O75030 whole entry): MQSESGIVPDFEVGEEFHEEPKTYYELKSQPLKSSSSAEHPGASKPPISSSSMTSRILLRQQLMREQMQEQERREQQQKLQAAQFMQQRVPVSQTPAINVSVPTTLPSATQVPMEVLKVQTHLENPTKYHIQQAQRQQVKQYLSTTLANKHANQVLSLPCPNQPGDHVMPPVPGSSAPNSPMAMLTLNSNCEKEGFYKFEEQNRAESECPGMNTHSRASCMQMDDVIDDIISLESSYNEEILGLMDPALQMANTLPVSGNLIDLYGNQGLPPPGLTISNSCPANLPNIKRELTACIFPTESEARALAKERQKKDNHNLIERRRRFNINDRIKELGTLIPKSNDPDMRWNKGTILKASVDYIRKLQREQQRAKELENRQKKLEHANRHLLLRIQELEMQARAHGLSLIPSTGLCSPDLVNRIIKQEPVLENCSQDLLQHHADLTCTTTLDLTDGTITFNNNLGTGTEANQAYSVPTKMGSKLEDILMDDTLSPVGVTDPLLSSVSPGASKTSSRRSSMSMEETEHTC

[4] = target: Lytic switch protein BZLF1 (Epstein-Barr virus (strain B95-8) (HHV-4) (Human herpesvirus 4), UniProt P03206); assay: inhibition of BZLF1 ZTA DNA binding – biochemical, fluorescence polarization, Epstein-Barr virus, 1536-well, counter-screen for EBNA-1 inhibitor project, dose response (AID 2377); design: species or system human gammaherpesvirus 4;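 note: fluorescence polarization of Cy5-labelled ZRE DNA probe bound by purified Zta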
[5] = target: Epstein-Barr nuclear antigen 1 (Epstein-Barr virus (strain B95-8) (HHV-4) (Human herpesvirus 4), UniProt P03211); assay: inhibition of EBV nuclear antigen 1 DNA binding – biochemical, fluorescence polarization, 1536-well, dose response (AID 2381); design: species or system human gammaherpesvirus 4;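 note: fluorescence polarization of a Cy5 DNA probe bound by EBNA-1 protein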
[6] = target: T2, Neuropeptide Y receptor type 1 (Homo sapiens, UniProt P25929); type: functional;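 note: HEK293 cells with a CNG channel challenged with NPY then isoproterenol; potency as antagonist that reverses NPY suppression of cAMP signal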
T2 sequence (P25929 whole entry): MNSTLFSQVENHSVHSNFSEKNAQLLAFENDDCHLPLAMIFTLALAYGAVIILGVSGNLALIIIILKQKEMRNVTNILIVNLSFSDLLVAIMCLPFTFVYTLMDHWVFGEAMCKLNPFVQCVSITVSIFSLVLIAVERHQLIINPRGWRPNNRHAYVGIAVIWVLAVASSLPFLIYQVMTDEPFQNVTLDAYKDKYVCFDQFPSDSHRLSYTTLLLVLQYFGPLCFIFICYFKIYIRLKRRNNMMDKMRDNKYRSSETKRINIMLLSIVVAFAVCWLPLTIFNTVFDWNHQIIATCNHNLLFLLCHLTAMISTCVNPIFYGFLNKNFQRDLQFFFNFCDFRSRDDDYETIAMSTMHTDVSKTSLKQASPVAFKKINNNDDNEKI

[7] = target: T3, Neuropeptide Y receptor type 2 (Homo sapiens, UniProt P49146); type: functional, cell-based;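 note: HEK293 cells expressing the receptor and a CNG channel; stimulus was NPY near EC95 followed by isoproterenol to raise cAMP; antagonist potency measured as restoring cAMP signal that NPY suppresses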
T3 sequence (P49146 whole entry): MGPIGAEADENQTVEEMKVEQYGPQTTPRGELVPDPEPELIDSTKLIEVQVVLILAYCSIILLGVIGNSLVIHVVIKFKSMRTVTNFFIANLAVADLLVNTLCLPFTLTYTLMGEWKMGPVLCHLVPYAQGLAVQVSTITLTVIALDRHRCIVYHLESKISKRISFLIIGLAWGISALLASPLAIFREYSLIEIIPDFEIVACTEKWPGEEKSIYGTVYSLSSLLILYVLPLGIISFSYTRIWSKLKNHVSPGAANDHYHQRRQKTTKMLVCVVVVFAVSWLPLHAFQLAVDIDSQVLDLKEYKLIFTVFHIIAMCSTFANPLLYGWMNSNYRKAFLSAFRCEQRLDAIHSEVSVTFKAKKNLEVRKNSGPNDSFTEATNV

Bcl-2-like protein 1 = Bcl-2-like protein 1 (Homo sapiens, UniProt Q07817); assay: blockers of BCLXL peptide binding – biochemical, fluorescence polarization, 1536-well, selectivity assay for MCL1 inhibitor project, dose response (AID 2218)
Genome polyprotein = Genome polyprotein (dengue virus type 2, UniProt P29990); assay: flavivirus cap methylation enzyme inhibition – biochemical, confirmation dose response, primary screen (AID 588689); type: functional
[8] = target: T4, Induced myeloid leukemia cell differentiation protein Mcl-1 (Homo sapiens, UniProt Q07820); assay: blockers of MCL1 binding to BIM peptide – biochemical, fluorescence polarization, BIM-BH3 peptide, 1536-well, dose response (AID 2217)
[9] = target: T5, RNA-binding protein pos-1 (Caenorhabditis elegans, UniProt G5EF15); assay: disruptors of C. elegans POS-1 RNA interaction – biochemical, fluorescence polarization, dose response (AID 1964);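 note: purified POS-1 fused to maltose binding protein made in E. coli; potency of compounds blocking POS-1 binding to fluorescent RNA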
T5 sequence (G5EF15 whole entry): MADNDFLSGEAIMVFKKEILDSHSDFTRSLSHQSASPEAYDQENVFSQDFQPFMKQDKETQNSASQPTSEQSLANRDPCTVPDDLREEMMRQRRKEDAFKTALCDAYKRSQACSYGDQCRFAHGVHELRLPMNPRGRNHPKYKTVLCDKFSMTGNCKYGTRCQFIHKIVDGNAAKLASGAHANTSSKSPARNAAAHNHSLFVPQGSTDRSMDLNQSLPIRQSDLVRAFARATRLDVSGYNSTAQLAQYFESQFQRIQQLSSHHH

[10] = target: T6, Zinc finger protein mex-5 (Caenorhabditis elegans, UniProt Q9XUB2); assay: potency of MEX-5 RNA-binding blockers – biochemical, C. elegans, fluorescence polarization, dose response (AID 1960)
T6 sequence (Q9XUB2 whole entry): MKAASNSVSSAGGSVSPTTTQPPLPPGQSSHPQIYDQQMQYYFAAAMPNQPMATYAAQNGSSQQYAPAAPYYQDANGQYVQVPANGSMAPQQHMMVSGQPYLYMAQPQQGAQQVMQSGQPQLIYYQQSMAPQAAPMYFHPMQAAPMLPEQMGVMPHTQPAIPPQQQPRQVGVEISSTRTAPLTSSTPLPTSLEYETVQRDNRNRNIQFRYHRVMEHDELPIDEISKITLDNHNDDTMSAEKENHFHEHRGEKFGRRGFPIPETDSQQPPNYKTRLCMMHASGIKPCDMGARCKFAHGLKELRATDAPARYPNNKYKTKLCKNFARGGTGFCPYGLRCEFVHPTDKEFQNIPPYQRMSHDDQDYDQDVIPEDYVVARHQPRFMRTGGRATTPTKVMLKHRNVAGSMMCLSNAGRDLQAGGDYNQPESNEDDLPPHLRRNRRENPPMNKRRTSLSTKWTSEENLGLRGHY

Cytochrome P450 3A4 = Cytochrome P450 3A4 (Homo sapiens, UniProt P08684);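 note: CYP3A4 tested as one member of a cytochrome P450 panel screen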
Cytochrome P450 1A2 = target: T7, Cytochrome P450 1A2 (Homo sapiens, UniProt P05177);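 note: PubChem cytochrome P450 panel assay, CYP1A2 panel member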
T7 sequence (P05177 whole entry): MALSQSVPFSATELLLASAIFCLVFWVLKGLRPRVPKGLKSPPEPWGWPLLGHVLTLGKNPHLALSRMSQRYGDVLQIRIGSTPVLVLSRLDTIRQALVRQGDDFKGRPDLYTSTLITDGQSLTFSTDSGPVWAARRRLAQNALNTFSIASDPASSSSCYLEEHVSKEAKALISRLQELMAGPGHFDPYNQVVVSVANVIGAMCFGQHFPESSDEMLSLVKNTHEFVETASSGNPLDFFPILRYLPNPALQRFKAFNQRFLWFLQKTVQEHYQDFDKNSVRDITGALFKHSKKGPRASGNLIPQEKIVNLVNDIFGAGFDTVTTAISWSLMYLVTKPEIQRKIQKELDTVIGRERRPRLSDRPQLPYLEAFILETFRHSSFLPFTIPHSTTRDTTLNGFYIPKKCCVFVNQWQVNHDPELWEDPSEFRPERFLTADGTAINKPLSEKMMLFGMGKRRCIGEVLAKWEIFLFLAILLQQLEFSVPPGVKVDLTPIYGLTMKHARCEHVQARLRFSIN

[11] = target: T4, Induced myeloid leukemia cell differentiation protein Mcl-1; type: functional
Cytochrome P450 2D6 = Cytochrome P450 2D6 (Homo sapiens, UniProt P10635);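 note: CYP2D6 member of a cytochrome P450 panel assay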
Cytochrome P450 2C19 = Cytochrome P450 2C19 (Homo sapiens, UniProt P33261); assay: Cytochrome panel assay with activity outcomes. Panel member name: p450-cyp2c19 Compounds with AC50 equal or less than 10 uM are considered active; type: functional; settings: read-out: AC50
BJ [12] = assay: BJ-TERT fibroblast viability loss – cell-based, RAS-independent, luminescence, dose response (AID 1933); type: functional; settings: Homo sapiens
BJ [13] = assay: cells; type: functional, cell-based; settings: Homo sapiens
[14] = HEK-293T viability loss after treatment – luminescence, T-cell screen hits, cytotoxicity control for TCR NF-kB inhibitor project, dose response (AID 489026); type: functional, cell-based;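 note: cells exposed to compound about 14 hours before the viability readout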
BJ [15] = assay: BJ-TERT-LT-ST fibroblast viability loss – cell-based, RAS-independent, luminescence, dose response (AID 1935); type: functional; settings: Homo sapiens;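 note: BJ fibroblasts immortalized with TERT plus LT and ST oncogenes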
[16] = NIH-3T3 fibroblast cytotoxicity, dose response, cytotoxicity control, cell-based, fluorescence, Alamar Blue, secondary assay (AID 2327); type: functional;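 note: NIH-3T3 mouse fibroblasts cultured with fluconazole at 8 µg/mL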
[17] = fluconazole-exposed Candida albicans growth modulators – fluorescence, retest, confirmation (AID 2467); type: functional, cell-based
[18] = DRD fibroblast viability loss – cell-based, non-viral oncogenic, luminescence, dose response (AID 1934); type: functional; settings: Homo sapiens
Cytochrome P450 2C9 = Cytochrome P450 2C9 (Homo sapiens, UniProt P11712)
Sequence of Cytochrome P450 2C9 (P11712 whole entry): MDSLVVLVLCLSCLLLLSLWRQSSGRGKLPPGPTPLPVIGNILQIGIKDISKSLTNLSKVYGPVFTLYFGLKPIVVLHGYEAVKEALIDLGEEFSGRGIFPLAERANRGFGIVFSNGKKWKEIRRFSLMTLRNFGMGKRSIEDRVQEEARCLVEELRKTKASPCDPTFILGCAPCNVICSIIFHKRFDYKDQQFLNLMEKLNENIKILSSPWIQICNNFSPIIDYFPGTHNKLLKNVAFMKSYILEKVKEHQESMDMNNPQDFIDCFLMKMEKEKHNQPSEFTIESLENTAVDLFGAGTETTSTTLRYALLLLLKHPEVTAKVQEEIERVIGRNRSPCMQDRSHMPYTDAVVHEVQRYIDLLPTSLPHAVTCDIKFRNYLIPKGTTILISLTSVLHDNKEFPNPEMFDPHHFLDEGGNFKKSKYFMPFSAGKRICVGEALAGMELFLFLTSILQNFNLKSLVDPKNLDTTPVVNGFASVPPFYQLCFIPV

T4 sequence (Q07820 whole entry, the tested form may be a part): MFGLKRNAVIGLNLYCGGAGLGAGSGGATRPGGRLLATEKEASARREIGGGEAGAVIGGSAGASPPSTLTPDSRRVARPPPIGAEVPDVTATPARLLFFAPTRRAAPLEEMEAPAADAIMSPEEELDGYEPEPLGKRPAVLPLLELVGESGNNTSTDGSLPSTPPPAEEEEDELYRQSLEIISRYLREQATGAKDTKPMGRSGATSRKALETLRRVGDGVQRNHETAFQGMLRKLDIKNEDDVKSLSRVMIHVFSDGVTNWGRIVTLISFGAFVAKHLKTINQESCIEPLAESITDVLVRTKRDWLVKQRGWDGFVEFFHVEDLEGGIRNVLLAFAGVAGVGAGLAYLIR
Sequence of Bcl-2-like protein 1 (Q07817 whole entry): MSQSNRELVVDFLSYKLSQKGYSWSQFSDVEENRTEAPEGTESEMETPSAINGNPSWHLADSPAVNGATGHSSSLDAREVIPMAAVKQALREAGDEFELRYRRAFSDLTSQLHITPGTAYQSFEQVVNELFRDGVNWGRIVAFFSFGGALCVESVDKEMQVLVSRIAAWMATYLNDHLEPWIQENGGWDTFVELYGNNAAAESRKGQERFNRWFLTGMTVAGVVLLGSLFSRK
Sequence of Epstein-Barr nuclear antigen 1 (P03211 whole entry): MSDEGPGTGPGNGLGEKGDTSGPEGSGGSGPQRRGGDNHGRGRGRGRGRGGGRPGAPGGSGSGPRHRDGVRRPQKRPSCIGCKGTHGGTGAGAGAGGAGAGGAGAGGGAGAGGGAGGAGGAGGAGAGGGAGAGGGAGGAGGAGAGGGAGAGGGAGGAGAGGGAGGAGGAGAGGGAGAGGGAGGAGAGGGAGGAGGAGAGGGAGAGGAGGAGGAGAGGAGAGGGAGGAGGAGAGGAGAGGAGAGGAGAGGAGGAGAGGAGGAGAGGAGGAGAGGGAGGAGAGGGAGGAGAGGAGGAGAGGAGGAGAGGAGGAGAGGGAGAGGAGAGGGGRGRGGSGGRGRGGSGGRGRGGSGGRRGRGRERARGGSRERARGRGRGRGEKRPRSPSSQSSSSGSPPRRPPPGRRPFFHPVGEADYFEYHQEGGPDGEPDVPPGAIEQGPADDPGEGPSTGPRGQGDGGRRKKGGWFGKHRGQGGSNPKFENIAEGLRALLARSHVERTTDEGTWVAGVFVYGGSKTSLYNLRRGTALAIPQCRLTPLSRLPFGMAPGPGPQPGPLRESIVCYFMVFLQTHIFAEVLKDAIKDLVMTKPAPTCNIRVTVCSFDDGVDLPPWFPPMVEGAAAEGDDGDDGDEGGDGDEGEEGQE
Sequence of Cytochrome P450 2C19 (P33261 whole entry): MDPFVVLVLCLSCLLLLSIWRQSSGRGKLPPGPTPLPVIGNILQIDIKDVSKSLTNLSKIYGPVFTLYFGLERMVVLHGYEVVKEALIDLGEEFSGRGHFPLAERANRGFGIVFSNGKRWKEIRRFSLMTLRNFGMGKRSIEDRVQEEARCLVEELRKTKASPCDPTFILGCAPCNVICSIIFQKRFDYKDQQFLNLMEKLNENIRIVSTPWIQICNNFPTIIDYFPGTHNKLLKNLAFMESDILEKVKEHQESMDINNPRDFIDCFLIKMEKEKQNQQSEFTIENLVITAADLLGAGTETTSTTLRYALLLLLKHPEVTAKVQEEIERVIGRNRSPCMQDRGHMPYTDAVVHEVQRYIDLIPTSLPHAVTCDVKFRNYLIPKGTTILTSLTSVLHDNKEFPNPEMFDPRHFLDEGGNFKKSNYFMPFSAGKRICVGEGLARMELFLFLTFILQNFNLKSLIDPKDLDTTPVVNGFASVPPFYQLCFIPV
Sequence of Cytochrome P450 2D6 (P10635 whole entry): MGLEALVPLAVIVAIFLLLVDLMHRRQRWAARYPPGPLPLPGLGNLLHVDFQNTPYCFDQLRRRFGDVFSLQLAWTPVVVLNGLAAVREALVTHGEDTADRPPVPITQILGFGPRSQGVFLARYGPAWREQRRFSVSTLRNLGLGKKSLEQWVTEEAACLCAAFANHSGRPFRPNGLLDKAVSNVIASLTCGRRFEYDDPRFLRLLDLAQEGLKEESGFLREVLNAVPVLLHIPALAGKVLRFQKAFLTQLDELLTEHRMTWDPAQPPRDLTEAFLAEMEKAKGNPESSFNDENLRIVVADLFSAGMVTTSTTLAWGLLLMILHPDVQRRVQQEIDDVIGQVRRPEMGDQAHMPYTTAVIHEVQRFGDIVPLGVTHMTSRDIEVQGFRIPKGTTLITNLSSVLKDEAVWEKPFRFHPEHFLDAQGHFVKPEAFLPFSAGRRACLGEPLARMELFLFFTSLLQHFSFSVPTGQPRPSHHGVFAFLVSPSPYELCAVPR
Sequence of Lytic switch protein BZLF1 (P03206 whole entry): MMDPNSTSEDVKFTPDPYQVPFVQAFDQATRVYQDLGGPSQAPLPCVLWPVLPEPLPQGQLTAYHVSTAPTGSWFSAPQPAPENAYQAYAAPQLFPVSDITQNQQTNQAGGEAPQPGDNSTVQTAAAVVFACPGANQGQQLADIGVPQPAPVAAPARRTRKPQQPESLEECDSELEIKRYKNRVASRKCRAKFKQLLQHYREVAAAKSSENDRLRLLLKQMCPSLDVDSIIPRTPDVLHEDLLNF
Sequence of Cytochrome P450 3A4 (P08684 whole entry): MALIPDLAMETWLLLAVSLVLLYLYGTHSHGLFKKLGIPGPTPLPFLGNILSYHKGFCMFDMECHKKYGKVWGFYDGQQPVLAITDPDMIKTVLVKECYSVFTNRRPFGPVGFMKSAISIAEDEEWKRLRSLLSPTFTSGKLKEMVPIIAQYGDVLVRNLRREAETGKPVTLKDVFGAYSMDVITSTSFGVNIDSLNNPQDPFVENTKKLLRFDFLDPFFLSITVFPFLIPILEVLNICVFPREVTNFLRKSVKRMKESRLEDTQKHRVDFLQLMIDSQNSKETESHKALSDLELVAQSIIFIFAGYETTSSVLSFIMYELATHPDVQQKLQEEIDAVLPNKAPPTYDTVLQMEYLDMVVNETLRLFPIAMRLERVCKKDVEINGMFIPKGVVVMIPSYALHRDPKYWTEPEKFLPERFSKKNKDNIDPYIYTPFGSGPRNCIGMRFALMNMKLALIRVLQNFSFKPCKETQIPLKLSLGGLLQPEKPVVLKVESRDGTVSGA
Sequence of Genome polyprotein (P29990 2492-3391 limits assumed): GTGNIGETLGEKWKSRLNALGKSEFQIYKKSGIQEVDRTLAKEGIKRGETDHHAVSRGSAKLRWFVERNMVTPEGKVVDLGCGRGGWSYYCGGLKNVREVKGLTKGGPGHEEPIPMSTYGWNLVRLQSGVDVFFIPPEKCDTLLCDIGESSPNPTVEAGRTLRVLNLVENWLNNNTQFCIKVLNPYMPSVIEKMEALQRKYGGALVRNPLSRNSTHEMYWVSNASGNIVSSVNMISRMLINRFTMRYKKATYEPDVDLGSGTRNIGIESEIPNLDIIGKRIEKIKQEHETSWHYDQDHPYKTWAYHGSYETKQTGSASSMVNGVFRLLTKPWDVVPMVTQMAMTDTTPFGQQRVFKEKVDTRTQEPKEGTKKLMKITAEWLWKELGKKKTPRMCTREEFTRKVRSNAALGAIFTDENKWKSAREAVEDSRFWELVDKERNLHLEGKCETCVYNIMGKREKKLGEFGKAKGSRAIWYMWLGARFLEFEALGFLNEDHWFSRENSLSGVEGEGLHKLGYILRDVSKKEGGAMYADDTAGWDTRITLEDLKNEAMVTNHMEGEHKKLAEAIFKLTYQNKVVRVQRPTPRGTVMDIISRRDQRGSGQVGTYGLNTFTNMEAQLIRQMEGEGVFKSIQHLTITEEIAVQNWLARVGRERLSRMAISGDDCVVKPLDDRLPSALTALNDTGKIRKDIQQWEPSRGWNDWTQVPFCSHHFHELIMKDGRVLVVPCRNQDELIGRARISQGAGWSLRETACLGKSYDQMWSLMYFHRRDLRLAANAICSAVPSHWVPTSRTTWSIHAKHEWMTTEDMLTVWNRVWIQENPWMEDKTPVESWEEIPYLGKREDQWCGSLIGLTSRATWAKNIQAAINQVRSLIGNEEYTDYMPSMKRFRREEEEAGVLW

Structure (SMILES): C/C(=N/NC(=O)C(O)(c1ccccc1)c1ccccc1)c1ccc([N+](=O)[O-])o1
- EC50 [1]: > 60 µM (not active)
- EC50 (cells): 0.222 µM (active)
- EC50 [2]: < 0.1 µM (active)
- AC50 [3]: 9.84 µM (active)

Structure (SMILES): O=C(N/N=C/c1ccncc1)c1cc([N+](=O)[O-])cc([N+](=O)[O-])c1O
- IC50 (Bcl-2-like protein 1): > 109 µM (not active)
- AC50 (Cytochrome P450 3A4): 1 µM (inconclusive)
- AC50 (Cytochrome P450 1A2): 5.01 µM (inconclusive)
- IC50 [11]: 3.25 µM (active)
- AC50 (Cytochrome P450 2D6): 14.1 µM (inconclusive)
- IC50 [8]: > 36.3 µM (not active)
- AC50 (Cytochrome P450 2C19): 2.51 µM (inconclusive)

Structure (SMILES): Cc1ccc2c(c1)sc(-c1ccc(N(C)C)cc1)[n+]2C
- EC50 (BJ [12]): 3.83 µM (active)
- EC50 [1]: > 60 µM (not active)
- EC50 (cells): < 0.004 µM (active)
- EC50 (BJ [13]): 0.609 µM (active)
- EC50 [2]: < 0.1 µM (active)
- IC50 [14]: > 80 µM (inactive)
- EC50 (BJ [15]): 20.9 µM (inconclusive)
- EC50 [16]: > 160 µM (inactive)
- EC50 [17]: 0.039 µM (active)
- EC50 [18]: 14.5 µM (active)

The next lines start with the values.

- IC50 [4]: > 111 µM (not active)
- IC50 [5]: 4.71 µM (active)
Structure (SMILES): COc1ccc2oc(C(=O)OCC(=O)Nc3ccc(NC(C)=O)cc3)c(C)c2c1

- IC50 [6]: 11.1 µM (not active)
- IC50 [7]: 17.8 µM (not active)
Structure (SMILES): CCSc1nc2ccc(OC)cc2cc1C#N

- IC50 (Bcl-2-like protein 1): > 109 µM (not active)
- IC50 (Genome polyprotein): > 100 µM (active)
- IC50 [8]: 2.07 µM (active)
- EC50 [9]: 12.9 µM (active)
- EC50 [10]: 0.193 µM (active)
Structure (SMILES): Cc1nc2ccccc2c(=O)n1/N=C/c1ccc(O)c(O)c1O

- AC50 (Cytochrome P450 2C9): 7.94 µM (inconclusive)
- IC50 [6]: 6.96 µM (active)
- IC50 [7]: 8.09 µM (active)
Structure (SMILES): Clc1ccccc1CSc1nnc(/C=C/c2ccccc2)o1
